Literature values, collected in PubChem BioAssay AID1259409 (Chemical Carcinogenesis Research Information System (CCRIS), 2018).

Tested on: rodent chemically induced tumor inhibition, incidence and multiplicity
Experiment: CCRIS tumor inhibitor studies

## O=c1c(O)c(-c2ccc(O)c(O)c2)oc2cc(O)cc(O)c12
Carcinogen: BENZO[A]PYRENE, 50-32-8, Dose [Inhibitor]: 25 MG IN 0.1 ML DMSO 3/WK, ADMINISTERED SIMULTANEOUSLY WITH CARCINOGEN FOR DURATION OF STUDY (STUDY DURATION: 368 D), Route [Inhibitor]: DERMAL, Species: MOUSE, Strain/Sex: ICR/FEMALE, Target Tissue: Type of Lesion: SKIN: PAPILLOMA, Dose [Carcinogen]: 5 UG IN 0.1 ML DMSO THAT ALSO CONTAINED AGENT 3/WK FOR DURATION OF STUDY, Promoter: NONE USED
  tumour outcome (control, treated, inhibition, significance): 13/50 (26%), 0/50 (0%), 100%, not calculated
Carcinogen: BENZO[A]PYRENE, 50-32-8, Dose [Inhibitor]: 100 UG IN 0.2 ML ACETONE ONCE 5 MINUTES BEFORE CARCINOGEN TREATMENT (STUDY DURATION: 31 WK), Route [Inhibitor]: DERMAL, Species: MOUSE, Strain/Sex: CD-1/FEMALE, Target Tissue: Type of Lesion: SKIN: PAPILLOMA, Dose [Carcinogen]: 400 NMOL IN 0.2 ML ACETONE ONCE, Promoter: 12-O-TETRADECANOYLPHORBOL-13-ACETATE, 16561-29-8
  tumour outcome (control, treated, inhibition, significance): 90%, 82%, 9%, not calculated
Carcinogen: DIETHYLNITROSAMINE, 55-18-5, N-METHYLNITROSOUREA, 684-93-5, 1,2-DIMETHYLHYDRAZINE, 540-73-8, N-BUTYL-N-(4-HYDROXYB, Carcinogen: DIETHYLNITROSAMINE, 55-18-5, N-METHYLNITROSOUREA, 684-93-5, 1,2-DIMETHYLHYDRAZINE, 540-73-8, N-BUTYL-N-(4-HYDROXYB, Dose [Inhibitor]: 0, 1% IN DIET FOR 4 WK BEGINNING 1 DAY PRIOR TO CARCINOGEN TREATMENT (STUDY DURATION: 36 WK), Route [Inhibitor]: ORAL, Species: RAT, Strain/Sex: F344/MALE, Target Tissue: Type of Lesion: KIDNEY: ADENOMA, Dose [Carcinogen]: 100 MG/KG DEN ONCE, 20 MG/KG MNU 4 TIMES, 40 MG/KG DMH 4 TIMES, 0.05% BBN IN DRINKING WATER FOR 2 WK, 0.1% DHPN IN D, Dose [Carcinogen]: 100 MG/KG DEN ONCE, 20 MG/KG MNU 4 TIMES, 40 MG/KG DMH 4 TIMES, 0.05% BBN IN DRINKING WATER FOR 2 WK, 0.1% DHPN IN D, Promoter: NONE USED
  tumour outcome (control, treated, inhibition, significance): 4/14 (29%), 4/13 (31%), -7%, not significant
Carcinogen: DIETHYLNITROSAMINE, 55-18-5, N-METHYLNITROSOUREA, 684-93-5, 1,2-DIMETHYLHYDRAZINE, 540-73-8, N-BUTYL-N-(4-HYDROXYB, Carcinogen: DIETHYLNITROSAMINE, 55-18-5, N-METHYLNITROSOUREA, 684-93-5, 1,2-DIMETHYLHYDRAZINE, 540-73-8, N-BUTYL-N-(4-HYDROXYB, Dose [Inhibitor]: 0, 1% IN DIET FOR 4 WK BEGINNING 1 DAY PRIOR TO CARCINOGEN TREATMENT (STUDY DURATION: 36 WK), Route [Inhibitor]: ORAL, Species: RAT, Strain/Sex: F344/MALE, Target Tissue: Type of Lesion: KIDNEY: NEPHROBLASTOMA, Dose [Carcinogen]: 100 MG/KG DEN ONCE, 20 MG/KG MNU 4 TIMES, 40 MG/KG DMH 4 TIMES, 0.05% BBN IN DRINKING WATER FOR 2 WK, 0.1% DHPN IN D, Dose [Carcinogen]: 100 MG/KG DEN ONCE, 20 MG/KG MNU 4 TIMES, 40 MG/KG DMH 4 TIMES, 0.05% BBN IN DRINKING WATER FOR 2 WK, 0.1% DHPN IN D, Promoter: NONE USED
  tumour outcome (control, treated, inhibition, significance): 7/14 (50%), 6/13 (46%), 8%, not significant
Carcinogen: DIETHYLNITROSAMINE, 55-18-5, N-METHYLNITROSOUREA, 684-93-5, 1,2-DIMETHYLHYDRAZINE, 540-73-8, N-BUTYL-N-(4-HYDROXYB, Carcinogen: DIETHYLNITROSAMINE, 55-18-5, N-METHYLNITROSOUREA, 684-93-5, 1,2-DIMETHYLHYDRAZINE, 540-73-8, N-BUTYL-N-(4-HYDROXYB, Dose [Inhibitor]: 0, 1% IN DIET FOR 4 WK BEGINNING 1 DAY PRIOR TO CARCINOGEN TREATMENT (STUDY DURATION: 36 WK), Route [Inhibitor]: ORAL, Species: RAT, Strain/Sex: F344/MALE, Target Tissue: Type of Lesion: LARGE INTESTINE: ADENOMA, Dose [Carcinogen]: 100 MG/KG DEN ONCE, 20 MG/KG MNU 4 TIMES, 40 MG/KG DMH 4 TIMES, 0.05% BBN IN DRINKING WATER FOR 2 WK, 0.1% DHPN IN D, Dose [Carcinogen]: 100 MG/KG DEN ONCE, 20 MG/KG MNU 4 TIMES, 40 MG/KG DMH 4 TIMES, 0.05% BBN IN DRINKING WATER FOR 2 WK, 0.1% DHPN IN D, Promoter: NONE USED
  tumour outcome (control, treated, inhibition, significance): 7/14 (50%), 5/13 (38%), 24%, not significant
Carcinogen: DIETHYLNITROSAMINE, 55-18-5, N-METHYLNITROSOUREA, 684-93-5, 1,2-DIMETHYLHYDRAZINE, 540-73-8, N-BUTYL-N-(4-HYDROXYB, Carcinogen: DIETHYLNITROSAMINE, 55-18-5, N-METHYLNITROSOUREA, 684-93-5, 1,2-DIMETHYLHYDRAZINE, 540-73-8, N-BUTYL-N-(4-HYDROXYB, Dose [Inhibitor]: 0, 1% IN DIET FOR 4 WK BEGINNING 1 DAY PRIOR TO CARCINOGEN TREATMENT (STUDY DURATION: 36 WK), Route [Inhibitor]: ORAL, Species: RAT, Strain/Sex: F344/MALE, Target Tissue: Type of Lesion: LARGE INTESTINE: CARCINOMA, Dose [Carcinogen]: 100 MG/KG DEN ONCE, 20 MG/KG MNU 4 TIMES, 40 MG/KG DMH 4 TIMES, 0.05% BBN IN DRINKING WATER FOR 2 WK, 0.1% DHPN IN D, Dose [Carcinogen]: 100 MG/KG DEN ONCE, 20 MG/KG MNU 4 TIMES, 40 MG/KG DMH 4 TIMES, 0.05% BBN IN DRINKING WATER FOR 2 WK, 0.1% DHPN IN D, Promoter: NONE USED
  tumour outcome (control, treated, inhibition, significance): 3/14 (21%), 5/13 (38%), -81%, not significant
